The record followed here is patent US20250197375A1, “PYRIMIDINES AND METHODS OF THEIR USE” (Kineta, Inc., priority 2021, published 2025).

SMILES strings stand for the structures.

The target of this test is PIKfyve (Homo sapiens (Human), UniProt Q9Y2I7). The test can be described thus: PIKfyve EEA1 Assay (endosomal vesicle enlargement, high content imaging in U2OS cells). The class given is cell-based. To be noted: 3 hours of treatment, activity relative to maximal APY0201 activity. As for the experimental part: PIKfyve EEA1 Assay. Genetic or pharmacological disruption of PIKfyve activity results in enlargement of endosomal vesicles. This enlargement was utilized as a surrogate readout of PIKFyve inhibition for routine triage of PIKfyve inhibitors. U2OS cells grown in 96-well assay plates were treated with compound diluted in DMEM media containing 10% fetal bovine serum. After 3 hours of treatment, cells were fixed with paraformaldehyde, permeabilized with 0.2% Triton-X in phosphate buffered saline and stained against EEA1. During the secondary antibody staining, cells were also stained with CellMask™ Deep Red and Hoechst to detect cytoplasms and nuclei respectively. Endosomal structures were visualized using a high content imager at 40× magnification. Images were analyzed using a linear classifier algorithm integrating EEA1 spot size, intensity and texture trained on images of cells treated with the potent reference compound APY0201. Compound activity was calculated by subtracting the DMSO signal and calculating percentage activity relative to maximal APY0201 activity. IC50 values were then calculated from concentration versus percent inhibition data by logistic regression.
Sequence of PIKfyve (Q9Y2I7 whole entry): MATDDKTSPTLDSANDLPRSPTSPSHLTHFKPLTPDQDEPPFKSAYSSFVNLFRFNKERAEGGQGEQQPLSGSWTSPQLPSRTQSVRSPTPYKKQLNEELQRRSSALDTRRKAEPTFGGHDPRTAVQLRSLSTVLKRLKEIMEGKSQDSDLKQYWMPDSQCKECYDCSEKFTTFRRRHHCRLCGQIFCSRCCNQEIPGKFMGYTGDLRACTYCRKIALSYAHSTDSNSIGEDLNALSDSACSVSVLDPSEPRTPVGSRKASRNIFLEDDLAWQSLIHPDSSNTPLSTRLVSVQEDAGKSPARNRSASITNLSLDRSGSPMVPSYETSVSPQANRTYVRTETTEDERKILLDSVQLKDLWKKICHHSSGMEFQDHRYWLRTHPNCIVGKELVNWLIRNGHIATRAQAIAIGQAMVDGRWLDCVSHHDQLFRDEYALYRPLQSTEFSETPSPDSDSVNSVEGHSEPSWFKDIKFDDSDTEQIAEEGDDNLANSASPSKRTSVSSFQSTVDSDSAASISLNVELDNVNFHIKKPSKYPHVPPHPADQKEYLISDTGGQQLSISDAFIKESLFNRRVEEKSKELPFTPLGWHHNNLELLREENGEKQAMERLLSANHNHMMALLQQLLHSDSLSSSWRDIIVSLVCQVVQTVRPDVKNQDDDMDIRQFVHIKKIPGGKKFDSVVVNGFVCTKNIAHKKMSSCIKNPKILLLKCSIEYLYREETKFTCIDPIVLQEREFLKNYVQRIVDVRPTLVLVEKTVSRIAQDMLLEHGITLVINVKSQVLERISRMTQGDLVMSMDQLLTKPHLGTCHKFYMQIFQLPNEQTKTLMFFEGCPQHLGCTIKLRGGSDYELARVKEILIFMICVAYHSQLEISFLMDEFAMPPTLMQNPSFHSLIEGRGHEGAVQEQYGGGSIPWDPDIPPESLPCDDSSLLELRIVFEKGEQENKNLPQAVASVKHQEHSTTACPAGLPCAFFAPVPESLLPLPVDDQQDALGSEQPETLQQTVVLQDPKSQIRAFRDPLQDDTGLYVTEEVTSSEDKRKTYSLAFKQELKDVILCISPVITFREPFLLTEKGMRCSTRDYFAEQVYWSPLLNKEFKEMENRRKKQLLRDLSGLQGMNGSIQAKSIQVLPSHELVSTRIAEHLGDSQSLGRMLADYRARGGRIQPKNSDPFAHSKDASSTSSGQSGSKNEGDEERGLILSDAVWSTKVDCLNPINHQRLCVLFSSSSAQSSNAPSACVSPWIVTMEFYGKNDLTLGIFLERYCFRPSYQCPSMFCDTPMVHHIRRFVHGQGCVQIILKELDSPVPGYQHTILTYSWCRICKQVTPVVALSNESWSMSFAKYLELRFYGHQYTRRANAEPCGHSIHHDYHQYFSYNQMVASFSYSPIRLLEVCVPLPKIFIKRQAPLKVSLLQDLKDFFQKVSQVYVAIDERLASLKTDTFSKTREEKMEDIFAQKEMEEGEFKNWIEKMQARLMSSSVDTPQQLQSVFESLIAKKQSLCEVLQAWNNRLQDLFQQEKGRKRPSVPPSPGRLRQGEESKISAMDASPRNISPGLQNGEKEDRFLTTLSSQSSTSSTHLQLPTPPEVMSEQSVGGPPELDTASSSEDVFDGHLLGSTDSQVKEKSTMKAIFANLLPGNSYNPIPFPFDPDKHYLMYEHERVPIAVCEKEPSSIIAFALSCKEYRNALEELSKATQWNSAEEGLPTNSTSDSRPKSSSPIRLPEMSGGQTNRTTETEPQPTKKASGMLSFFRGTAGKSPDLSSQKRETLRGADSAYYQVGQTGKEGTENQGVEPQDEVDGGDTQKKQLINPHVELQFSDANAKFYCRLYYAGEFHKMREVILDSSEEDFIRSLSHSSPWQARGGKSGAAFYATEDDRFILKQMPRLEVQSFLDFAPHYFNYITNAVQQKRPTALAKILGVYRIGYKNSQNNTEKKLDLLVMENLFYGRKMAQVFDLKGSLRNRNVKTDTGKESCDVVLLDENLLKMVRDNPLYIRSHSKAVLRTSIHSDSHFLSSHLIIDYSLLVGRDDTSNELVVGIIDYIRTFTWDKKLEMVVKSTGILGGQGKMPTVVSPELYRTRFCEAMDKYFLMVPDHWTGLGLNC
By IC50 is commonly meant the concentration at which inhibition is half-maximal. Higher therefore signals weaker potency. Molecule `COc1c(Nc2ccncc2)nc(N2CCOCC2)nc1-c1ccnc(-c2ccn(C)n2)n1` [Compound 56, 5-methoxy-2′-(I-methyl-1H-pyrazol-3-yl)-2-morpholino-N-(pyridin-4-yl)-4,4′-bipyrimidin-4-amine] returned a half-maximal inhibitory concentration (IC50) of 0.1 to 1 µM. The value for `O=c1[nH]c2ccc(-n3cccn3)cc2c2nc(N3CCOCC3)nc(Nc3ccncc3)c12` [Compound 64, 2-morpholino-9-pyrazol-1-yl-4-(4-pyridylamino)-6H-pyrimido[5,4-c]quinolin-5-one] was 1 to 10 µM. Turning to `OCc1c(Nc2cccnc2)nc(N2CCOCC2)nc1-c1cccc(-n2cccn2)c1` [Compound 70, [2-morpholino-4-(3-pyrazol-1-ylphenyl)-6-(3-pyridylamino)pyrimidin-6-yl]methanol], the 50% inhibitory concentration (IC50) lay in the range of 1 to 10 µM.

`COc1c(NCc2cccnc2)nc(-c2cccc(-c3ccn(C)n3)c2)nc1-c1ccncc1` [Compound 63, 5-methoxy-2-(3-(1-methyl-1H-pyrazol-3-yl)phenyl)-N-(pyridin-3-ylmethyl)-6-(pyridin-4-yl)pyrimidin-4-amine] came in with an IC50 of 1 to 10 µM.

In turn, `COc1c(Nc2cccnc2)nc(N2CCOCC2)nc1-c1cccc(-c2ccn(C)n2)c1` [Compound 20, 5-methoxy-6-(3-(1-methyl-1H-pyrazol-3-yl)phenyl)-2-morpholino-N-(pyridin-3-yl)pyrimidin-4-amine] returned an IC50 of 0.1 to 1 µM. The molecule `COc1ccc(-c2nc(N3CCOCC3)nc(Nc3ccncc3)c2OC)nc1OC` [Compound 51, 6-(5,6-dimethoxypyridin-2-yl)-5-methoxy-2-morpholino-N-(pyridin-4-yl)pyrimidin-4-amine] registered an IC50 of 0.1 to 1 µM. The value for `COc1c(Nc2ccncc2)nc(-c2ccncc2)nc1-c1cccc(-c2ccn(C)n2)c1` [Compound 53, 5-methoxy-6-(3-(1-methyl-1H-pyrazol-3-yl)phenyl)-N, 2-di(pyridin-4-yl)pyrimidin-4-amine] was 0.01 to 0.1 µM. Consider `COc1c(Nc2ccncc2)nc(N2CCOCC2)nc1-c1cccc(N2CCC(O)CC2)c1` [Compound 48, 1-(3-(5-methoxy-2-morpholino-6-(pyridin-4-ylamino)pyrimidin-4-yl)phenyl)piperidin-4-ol], for which the IC50 is 0.1 to 1 µM. The value for `COc1c(Nc2cccnc2)nc(N2CCOCC2)nc1-c1cccc(N2CCC(O)C2)c1` (stereo not drawn) [Compound 26, 1-(3-(5-methoxy-2-morpholino-6-(pyridin-3-ylamino)pyrimidin-4-yl)phenyl)pyrrolidin-3-ol] was 1 to 10 µM; that for `COc1c(Nc2cccnc2)nc(N2CCOCC2)nc1-c1ccnc(-c2ccn(C)n2)c1` [Compound 25, 5-methoxy-6-(2-(1-methyl-1H-pyrazol-3-yl)pyridin-4-yl)-2-morpholino-N-(pyridin-3-yl)pyrimidin-4-amine] was 0.1 to 1 µM; that for `COc1c(-c2cccc(-c3ccn(C)n3)c2)nc(N2CCOCC2)nc1-c1cnn(C)c1` [Compound 52, 4-(5-methoxy-4-(3-(1-methyl-1H-pyrazol-3-yl)phenyl)-6-(1-methyl-1H-pyrazol-4-yl)pyrimidin-2-yl)morpholine] was 1 to 10 µM. For `COc1c(-c2cccc(-n3cccn3)c2)nc(N2CCOCC2)nc1-c1nc(-c2ccccc2)c[nH]1` [Compound 61, 4-(4-(3-(1H-pyrazol-1-yl)phenyl)-6-methoxy-6-(4-phenyl-1H-imidazol-2-yl)pyrimidin-2-yl)morpholine], the IC50 is 1 to 10 µM. The value for `Cn1ccc(-c2cccc(-c3nc(N4CCOCC4)nc(Nc4ccncc4)c3C(=O)N3CCC3)c2)n1` [Compound 68] was 0.01 to 0.1 µM. The molecule `COc1c(Nc2cccnc2)nc(N2CCOCC2)nc1-c1cccc(C(=O)N(C)C)c1` [Compound 24] returned a half-maximal inhibitory concentration (IC50) of 1 to 10 µM. In turn, `Cn1ccc(-c2cccc(-c3nc(N4CCOCC4)nc(Nc4cccnc4)c3P(C)(C)=O)c2)n1` [Compound 45, dimethyl(4-(3-(1-methyl-1H-pyrazol-3-yl)phenyl)-2-morpholino-6-(pyridin-3-ylamino)pyrimidin-6-yl)phosphine oxide] gave an IC50 of 1 to 10 µM.
